According to publication PMC10176470, “Engaging a Non-catalytic Cysteine Residue Drives Potent and Selective Inhibition of Caspase-6” (Journal of the American Chemical Society, 2023):
Read-outs that look alike come from different tables or passages of the source.

Tests used:
Assay type in all cases: cell-based
[1] = target: proteins of HEK293T cells transiently overexpressing caspase-6 (Homo sapiens, UniProt P13647); details: Probe; protein KRT5 P13647
[2] = target: proteins of HEK293T cells transiently overexpressing caspase-6 (Homo sapiens, UniProt P25786); details: Probe; protein PSMA1 P25786
[3] = target: proteins of HEK293T cells transiently overexpressing caspase-6 (Homo sapiens, UniProt P26641); details: exp_ref Probe; protein EEF1G (P26641); analysis C6
[4] = target: proteins of HEK293T cells transiently overexpressing caspase-6 (Homo sapiens, UniProt P36871); details: protein PGM1 (P36871); exp_ref Probe; analysis C6
[5] = target: proteins of HEK293T cells transiently overexpressing caspase-6 (Homo sapiens, UniProt P38646); details: protein HSPA9 (P38646)
Sequence of proteins of HEK293T cells transiently overexpressing caspase-6 (Homo sapiens, UniProt P38646) (P38646 47-679): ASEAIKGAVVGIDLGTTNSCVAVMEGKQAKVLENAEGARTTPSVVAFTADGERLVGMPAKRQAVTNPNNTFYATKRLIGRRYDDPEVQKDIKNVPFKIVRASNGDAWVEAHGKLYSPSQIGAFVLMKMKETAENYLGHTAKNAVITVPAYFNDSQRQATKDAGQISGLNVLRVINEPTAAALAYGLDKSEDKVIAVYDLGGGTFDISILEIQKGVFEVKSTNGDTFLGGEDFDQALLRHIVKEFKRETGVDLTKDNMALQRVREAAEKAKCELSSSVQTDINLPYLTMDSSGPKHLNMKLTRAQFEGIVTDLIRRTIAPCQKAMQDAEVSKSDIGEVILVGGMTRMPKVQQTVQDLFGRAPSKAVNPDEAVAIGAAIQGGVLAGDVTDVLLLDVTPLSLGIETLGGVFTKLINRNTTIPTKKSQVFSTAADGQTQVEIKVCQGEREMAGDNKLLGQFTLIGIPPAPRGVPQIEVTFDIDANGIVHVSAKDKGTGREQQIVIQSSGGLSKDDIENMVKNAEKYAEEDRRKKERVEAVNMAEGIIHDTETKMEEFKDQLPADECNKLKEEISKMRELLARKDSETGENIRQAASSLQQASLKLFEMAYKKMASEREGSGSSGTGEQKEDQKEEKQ

[6] = target: proteins of HEK293T cells transiently overexpressing caspase-6 (Homo sapiens, UniProt P50914); details: exp_ref Probe; protein RPL14 (P50914); analysis C6
[7] = target: proteins of HEK293T cells transiently overexpressing caspase-6 (Homo sapiens, UniProt P52292); details: exp_ref Probe; protein KPNA2 (P52292); analysis C6
[8] = target: proteins of HEK293T cells transiently overexpressing caspase-6 (Homo sapiens, UniProt P78371); details: exp_ref Probe; protein CCT2 (P78371); analysis C6
Sequence of proteins of HEK293T cells transiently overexpressing caspase-6 (Homo sapiens, UniProt P78371) (P78371 whole entry): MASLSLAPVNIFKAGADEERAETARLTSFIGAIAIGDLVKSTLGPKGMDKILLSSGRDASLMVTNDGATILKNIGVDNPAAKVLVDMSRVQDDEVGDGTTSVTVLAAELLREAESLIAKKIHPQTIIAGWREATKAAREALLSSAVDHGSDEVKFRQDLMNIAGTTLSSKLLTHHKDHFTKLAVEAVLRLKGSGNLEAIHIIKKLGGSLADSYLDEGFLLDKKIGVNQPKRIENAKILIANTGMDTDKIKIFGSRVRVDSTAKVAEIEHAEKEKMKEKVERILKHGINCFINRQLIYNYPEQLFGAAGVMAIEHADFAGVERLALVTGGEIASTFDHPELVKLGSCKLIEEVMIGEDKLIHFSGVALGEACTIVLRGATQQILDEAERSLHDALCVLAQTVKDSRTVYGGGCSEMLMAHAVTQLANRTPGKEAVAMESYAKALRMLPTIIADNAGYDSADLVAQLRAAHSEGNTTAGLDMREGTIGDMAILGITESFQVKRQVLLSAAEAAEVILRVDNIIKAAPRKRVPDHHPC

[9] = target: proteins of HEK293T cells transiently overexpressing caspase-6 (Homo sapiens, UniProt Q00839); details: protein HNRNPU (Q00839)
Sequence of proteins of HEK293T cells transiently overexpressing caspase-6 (Homo sapiens, UniProt Q00839) (Q00839 whole entry): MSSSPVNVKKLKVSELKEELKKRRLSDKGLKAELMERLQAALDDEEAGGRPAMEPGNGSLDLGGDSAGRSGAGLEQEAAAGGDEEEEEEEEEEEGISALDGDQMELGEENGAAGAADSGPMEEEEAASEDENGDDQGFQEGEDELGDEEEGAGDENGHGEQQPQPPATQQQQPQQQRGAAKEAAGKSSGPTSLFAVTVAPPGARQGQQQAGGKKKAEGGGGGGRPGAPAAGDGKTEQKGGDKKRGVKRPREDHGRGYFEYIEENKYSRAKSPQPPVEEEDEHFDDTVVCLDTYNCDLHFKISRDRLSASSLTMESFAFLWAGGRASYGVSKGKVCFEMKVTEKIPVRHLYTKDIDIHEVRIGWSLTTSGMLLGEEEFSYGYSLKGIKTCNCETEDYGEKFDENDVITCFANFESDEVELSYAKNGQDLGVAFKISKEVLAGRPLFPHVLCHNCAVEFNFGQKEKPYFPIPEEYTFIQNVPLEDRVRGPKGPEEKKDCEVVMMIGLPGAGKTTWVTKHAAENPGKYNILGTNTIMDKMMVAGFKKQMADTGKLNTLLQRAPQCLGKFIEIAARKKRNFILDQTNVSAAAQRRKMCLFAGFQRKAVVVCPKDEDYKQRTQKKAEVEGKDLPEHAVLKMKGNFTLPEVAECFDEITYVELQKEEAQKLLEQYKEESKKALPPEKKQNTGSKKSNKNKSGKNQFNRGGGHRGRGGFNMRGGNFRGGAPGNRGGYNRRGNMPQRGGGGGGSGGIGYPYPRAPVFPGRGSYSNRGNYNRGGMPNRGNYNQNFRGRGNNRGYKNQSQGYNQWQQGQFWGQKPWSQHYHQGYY

[10] = target: T1, proteins of HEK293T cells transiently overexpressing caspase-6 (Homo sapiens, UniProt Q02978); details: protein SLC25A11 (Q02978), analysis C6
T1 sequence (Q02978 1-314): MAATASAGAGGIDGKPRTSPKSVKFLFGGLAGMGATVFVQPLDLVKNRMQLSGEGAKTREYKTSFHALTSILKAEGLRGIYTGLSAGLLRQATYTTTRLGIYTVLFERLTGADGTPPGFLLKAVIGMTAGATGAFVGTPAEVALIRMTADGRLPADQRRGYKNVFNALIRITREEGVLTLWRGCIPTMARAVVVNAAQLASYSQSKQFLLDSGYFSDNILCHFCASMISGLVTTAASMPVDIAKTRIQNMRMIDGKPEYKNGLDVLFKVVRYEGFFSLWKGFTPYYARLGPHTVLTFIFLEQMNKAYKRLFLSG

[11] = target: proteins of HEK293T cells transiently overexpressing caspase-6 (Homo sapiens, UniProt Q13148); details: protein TARDBP (Q13148); exp_ref Probe; analysis C6
[12] = target: proteins of HEK293T cells transiently overexpressing caspase-6 (Homo sapiens, UniProt Q15185); details: exp_ref Probe; protein PTGES3 (Q15185); analysis C6
Sequence of proteins of HEK293T cells transiently overexpressing caspase-6 (Homo sapiens, UniProt Q15185) (Q15185 whole entry): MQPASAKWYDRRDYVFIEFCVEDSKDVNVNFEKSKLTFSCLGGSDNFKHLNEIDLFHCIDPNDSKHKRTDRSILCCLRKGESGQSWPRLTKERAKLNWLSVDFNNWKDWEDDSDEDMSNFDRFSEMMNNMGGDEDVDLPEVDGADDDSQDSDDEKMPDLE

[13] = target: proteins of HEK293T cells transiently overexpressing caspase-6 (Homo sapiens, UniProt Q8TCD1); details: protein C18orf32 (Q8TCD1)
Sequence of proteins of HEK293T cells transiently overexpressing caspase-6 (Homo sapiens, UniProt Q8TCD1) (Q8TCD1 whole entry): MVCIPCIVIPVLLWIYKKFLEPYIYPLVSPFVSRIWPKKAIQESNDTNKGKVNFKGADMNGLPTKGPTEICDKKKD

[14] = target: proteins of HEK293T cells transiently overexpressing caspase-6 (Homo sapiens, UniProt Q92598); details: exp_ref Probe; protein HSPH1 (Q92598); analysis C6
Sequence of proteins of HEK293T cells transiently overexpressing caspase-6 (Homo sapiens, UniProt Q92598) (Q92598 whole entry): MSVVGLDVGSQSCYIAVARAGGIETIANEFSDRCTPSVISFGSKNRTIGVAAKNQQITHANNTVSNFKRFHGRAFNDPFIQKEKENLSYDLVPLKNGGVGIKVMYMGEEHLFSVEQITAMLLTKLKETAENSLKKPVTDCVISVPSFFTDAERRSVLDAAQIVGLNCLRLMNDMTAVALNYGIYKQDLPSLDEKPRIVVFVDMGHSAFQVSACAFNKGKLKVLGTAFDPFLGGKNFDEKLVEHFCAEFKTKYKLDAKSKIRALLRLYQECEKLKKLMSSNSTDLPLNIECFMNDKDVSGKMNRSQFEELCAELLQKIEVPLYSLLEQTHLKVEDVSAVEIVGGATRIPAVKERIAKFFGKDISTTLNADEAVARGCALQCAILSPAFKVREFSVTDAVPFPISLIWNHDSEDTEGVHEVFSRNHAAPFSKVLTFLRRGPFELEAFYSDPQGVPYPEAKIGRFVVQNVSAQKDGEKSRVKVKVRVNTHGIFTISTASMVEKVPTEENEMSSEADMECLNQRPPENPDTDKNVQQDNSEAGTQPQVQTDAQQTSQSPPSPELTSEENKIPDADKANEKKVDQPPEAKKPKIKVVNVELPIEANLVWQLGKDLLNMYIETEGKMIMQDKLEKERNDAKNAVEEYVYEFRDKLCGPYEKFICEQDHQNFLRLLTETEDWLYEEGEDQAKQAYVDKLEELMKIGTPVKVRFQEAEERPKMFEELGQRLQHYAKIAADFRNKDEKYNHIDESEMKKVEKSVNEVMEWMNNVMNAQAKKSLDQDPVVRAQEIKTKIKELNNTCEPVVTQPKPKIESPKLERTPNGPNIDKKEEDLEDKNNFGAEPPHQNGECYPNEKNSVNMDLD

[15] = target: proteins of HEK293T cells transiently overexpressing caspase-6 (Homo sapiens, UniProt Q99798); details: exp_ref Probe; protein ACO2 (Q99798); analysis C6
[16] = target: proteins of HEK293T cells transiently overexpressing caspase-6 (Homo sapiens, UniProt Q9BVP2); details: exp_ref Probe; protein GNL3 (Q9BVP2); analysis C6
Sequence of proteins of HEK293T cells transiently overexpressing caspase-6 (Homo sapiens, UniProt Q9BVP2) (Q9BVP2 whole entry): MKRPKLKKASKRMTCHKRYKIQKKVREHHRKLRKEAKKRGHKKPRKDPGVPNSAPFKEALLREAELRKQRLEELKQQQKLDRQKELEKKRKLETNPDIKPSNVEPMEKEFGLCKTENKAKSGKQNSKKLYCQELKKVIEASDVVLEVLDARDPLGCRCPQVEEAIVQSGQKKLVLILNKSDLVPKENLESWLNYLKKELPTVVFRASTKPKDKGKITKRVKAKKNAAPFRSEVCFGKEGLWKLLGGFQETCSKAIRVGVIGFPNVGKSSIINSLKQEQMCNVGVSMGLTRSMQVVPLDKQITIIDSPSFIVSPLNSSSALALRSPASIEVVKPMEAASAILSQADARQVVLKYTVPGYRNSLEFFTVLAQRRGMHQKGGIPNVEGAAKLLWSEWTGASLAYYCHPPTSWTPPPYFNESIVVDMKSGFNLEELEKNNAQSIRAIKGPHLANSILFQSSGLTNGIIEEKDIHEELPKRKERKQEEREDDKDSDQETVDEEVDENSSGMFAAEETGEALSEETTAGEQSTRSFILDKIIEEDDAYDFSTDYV

[17] = target: proteins of HEK293T cells transiently overexpressing caspase-6 (Homo sapiens, UniProt Q9H307); details: exp_ref Probe; protein PNN (Q9H307); analysis C6
Sequence of proteins of HEK293T cells transiently overexpressing caspase-6 (Homo sapiens, UniProt Q9H307) (Q9H307 whole entry): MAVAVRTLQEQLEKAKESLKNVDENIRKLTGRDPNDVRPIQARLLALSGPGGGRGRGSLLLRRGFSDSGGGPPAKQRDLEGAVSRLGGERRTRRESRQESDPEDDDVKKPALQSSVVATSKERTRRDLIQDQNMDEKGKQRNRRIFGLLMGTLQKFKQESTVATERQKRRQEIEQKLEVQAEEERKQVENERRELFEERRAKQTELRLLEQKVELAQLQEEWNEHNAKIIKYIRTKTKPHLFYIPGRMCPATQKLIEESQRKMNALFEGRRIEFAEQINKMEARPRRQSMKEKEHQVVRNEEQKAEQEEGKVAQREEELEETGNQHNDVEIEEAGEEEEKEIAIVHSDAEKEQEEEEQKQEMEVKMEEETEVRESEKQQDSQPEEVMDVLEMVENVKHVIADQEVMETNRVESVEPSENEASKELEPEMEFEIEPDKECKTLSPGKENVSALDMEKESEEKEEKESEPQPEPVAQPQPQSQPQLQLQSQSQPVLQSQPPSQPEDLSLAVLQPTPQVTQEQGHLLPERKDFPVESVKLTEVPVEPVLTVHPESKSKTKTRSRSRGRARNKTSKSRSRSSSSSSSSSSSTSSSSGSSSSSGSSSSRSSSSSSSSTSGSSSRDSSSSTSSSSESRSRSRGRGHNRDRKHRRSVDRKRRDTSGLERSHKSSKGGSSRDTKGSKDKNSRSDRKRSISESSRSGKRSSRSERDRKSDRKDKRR

[18] = target: proteins of HEK293T cells transiently overexpressing caspase-6 (Homo sapiens, UniProt Q9Y490); details: exp_ref Probe; protein TLN1 (Q9Y490); analysis C6

Sequence of proteins of HEK293T cells transiently overexpressing caspase-6 (Homo sapiens, UniProt P13647) (P13647 whole entry): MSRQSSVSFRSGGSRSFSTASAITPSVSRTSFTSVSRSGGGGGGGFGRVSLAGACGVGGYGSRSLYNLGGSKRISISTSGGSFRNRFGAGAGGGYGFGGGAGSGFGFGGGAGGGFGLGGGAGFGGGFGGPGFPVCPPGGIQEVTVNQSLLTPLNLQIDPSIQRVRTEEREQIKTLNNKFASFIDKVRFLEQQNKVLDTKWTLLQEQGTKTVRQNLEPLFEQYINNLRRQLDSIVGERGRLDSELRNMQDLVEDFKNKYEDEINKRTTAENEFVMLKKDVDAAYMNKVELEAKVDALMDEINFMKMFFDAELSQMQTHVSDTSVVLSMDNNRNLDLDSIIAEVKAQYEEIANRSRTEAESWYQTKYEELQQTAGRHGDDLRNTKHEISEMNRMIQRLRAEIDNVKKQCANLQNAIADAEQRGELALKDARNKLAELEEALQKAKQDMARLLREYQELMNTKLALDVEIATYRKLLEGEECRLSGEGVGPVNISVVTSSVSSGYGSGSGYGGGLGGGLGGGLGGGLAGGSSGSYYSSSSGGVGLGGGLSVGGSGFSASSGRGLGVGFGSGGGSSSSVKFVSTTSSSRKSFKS

C#CCOc1ccc([C@@H]2C[C@@H](C(=O)Nc3ccc(OC(F)(F)F)cc3)CN(S(=O)(=O)C=C)C2)cc1 (relative stereo) [13-t]
enrich.exp.med [1]: -6.8
enrich.exp.med [2]: -2.151
enrich.exp.med [3]: 0.5675
enrich.exp.med [4]: 1.9053
enrich.exp.med ([5]; exp_ref Probe, analysis C6): 0.7965
enrich.exp.med.lin [5]: 1.737
enrich.exp.med.log2 [5]: 0.7965
enrich.exp.med [6]: 0.5362
enrich.exp.med [7]: 0.5159
enrich.exp.med [8]: 0.6812
enrich.exp.med ([9]; exp_ref Probe, analysis C6): 0.5889
enrich.exp.med.lin [9]: 1.5041
enrich.exp.med.log2 [9]: 0.5889
enrich.exp.med.lin ([10]; Expt Probe): 7.305
enrich.exp.med.log2 ([10]; Expt Probe): 2.869
enrich.exp.med ([10]; exp_ref Probe): 2.869
enrich.exp.med [11]: 1.294
enrich.exp.med [12]: 1.128
enrich.exp.med.lin [13]: 5.403
enrich.exp.med.log2 [13]: 2.434
enrich.exp.med.lin ([13]; Expt Probe, analysis C6): 5.403
enrich.exp.med.log2 ([13]; Expt Probe, analysis C6): 2.434
enrich.exp.med ([13]; exp_ref Probe, analysis C6): 2.434
enrich.exp.med [14]: 0.7489
enrich.exp.med [15]: -0.3317
enrich.exp.med [16]: 0.541
enrich.exp.med [17]: 0.5676
enrich.exp.med [18]: 0.6042
